In experiment [1] the test system is Mus musculus. Nature of the experiment: Effect on hypothermia in Swiss albino mouse assessed as change in rectal body temperature at 10 mg/kg, ip after 60 mins by inducible hypothermia test. It is filed as functional, organism-based. Set-up: dose 10 mg/kg.
Experiment [2] deals with Mus musculus. Nature of the experiment: Effect on hypothermia in Swiss albino mouse assessed as change in rectal body temperature at 20 mg/kg, ip dosed 15 mins after 0.1 mg/kg, sc WAY 100635 challenge measured after 30 mins by inducible hypothermia test. It is filed as functional, organism-based.
Experiment [3] relates to Mus musculus. Nature of the experiment: Effect on hypothermia in Swiss albino mouse assessed as change in rectal body temperature at 10 mg/kg, ip after 120 mins by inducible hypothermia test. Set-up: dose 10 mg/kg. It is filed as functional, organism-based.
Experiment [4] has as its system Mus musculus. Nature of the experiment: Effect on hypothermia in Swiss albino mouse assessed as change in rectal body temperature at 20 mg/kg, ip after 30 mins by inducible hypothermia test. It is filed as functional, organism-based. The arrangement: dose 20 mg/kg.
Experiment [5] deals with Mus musculus. Nature of the experiment: Effect on hypothermia in Swiss albino mouse assessed as change in rectal body temperature at 20 mg/kg, ip after 60 mins by inducible hypothermia test. The arrangement: dose 20 mg/kg. It is filed as functional, organism-based.
Experiment [6] has as its system Mus musculus. Nature of the experiment: Effect on hypothermia in Swiss albino mouse assessed as change in rectal body temperature at 10 mg/kg, ip after 90 mins by inducible hypothermia test. It is filed as functional, organism-based. Set-up: dose 10 mg/kg.
The test system of experiment [7] is Mus musculus. Nature of the experiment: Effect on hypothermia in Swiss albino mouse assessed as change in rectal body temperature at 5 mg/kg, ip after 30 mins by inducible hypothermia test. It is filed as functional, organism-based. Set-up: dose 5 mg/kg.
Experiment [8] deals with T1, 5-hydroxytryptamine receptor 1A (Rattus norvegicus, UniProt P19327).
T1 sequence (P19327 whole entry): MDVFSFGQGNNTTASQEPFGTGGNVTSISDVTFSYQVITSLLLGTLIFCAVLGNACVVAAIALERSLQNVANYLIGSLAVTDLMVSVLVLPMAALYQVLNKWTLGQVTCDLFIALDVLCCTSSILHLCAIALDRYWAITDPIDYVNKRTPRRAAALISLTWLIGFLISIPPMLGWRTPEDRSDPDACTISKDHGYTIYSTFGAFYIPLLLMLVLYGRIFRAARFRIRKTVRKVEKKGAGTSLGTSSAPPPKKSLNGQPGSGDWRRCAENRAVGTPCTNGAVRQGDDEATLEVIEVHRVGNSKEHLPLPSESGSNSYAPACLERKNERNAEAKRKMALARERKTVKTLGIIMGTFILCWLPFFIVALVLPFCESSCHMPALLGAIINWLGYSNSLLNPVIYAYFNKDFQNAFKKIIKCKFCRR
Nature of the experiment: Displacement of [3H]8-OH-DPAT from 5-HT1A receptor in rat hippocampus. It is filed as tissue-based. (In a radioligand displacement assay an active substance lowers the binding of a labelled ligand.)

Experiment [9] deals with Mus musculus. Nature of the experiment: Effect on hypothermia in Swiss albino mouse assessed as change in rectal body temperature at 5 mg/kg, ip after 90 mins by inducible hypothermia test. It is filed as functional, organism-based. Set-up: dose 5 mg/kg.
Experiment [10] concerns Mus musculus. Nature of the experiment: Effect on hypothermia in Swiss albino mouse assessed as change in rectal body temperature at 20 mg/kg, ip after 90 mins by inducible hypothermia test. It is filed as functional, organism-based. Set-up: dose 20 mg/kg.
In experiment [11] the test system is Mus musculus. Nature of the experiment: Effect on hypothermia in Swiss albino mouse assessed as change in rectal body temperature at 20 mg/kg, ip dosed 15 mins after 0.1 mg/kg, sc WAY 100635 challenge measured after 60 mins by inducible hypothermia test. It is filed as functional, organism-based.
For experiment [12], the system named is Mus musculus. Nature of the experiment: Effect on hypothermia in Swiss albino mouse assessed as change in rectal body temperature at 10 mg/kg, ip after 30 mins by inducible hypothermia test. Set-up: dose 10 mg/kg. It is filed as functional, organism-based.
For experiment [13], the target named is Sodium-dependent serotonin transporter (Rattus norvegicus, UniProt P31652). Nature of the experiment: Displacement of [3H]citalopram from SERT in rat cerebral cortex by liquid scintillation counting. It is filed as tissue-based.
Experiment [14] concerns Mus musculus. Nature of the experiment: Effect on hypothermia in Swiss albino mouse assessed as change in rectal body temperature at 5 mg/kg, ip after 120 mins by inducible hypothermia test. It is filed as functional, organism-based. Set-up: dose 5 mg/kg.
Experiment [15] has as its system Mus musculus. Nature of the experiment: Effect on hypothermia in Swiss albino mouse assessed as change in rectal body temperature at 5 mg/kg, ip after 60 mins by inducible hypothermia test. It is filed as functional, organism-based. The arrangement: dose 5 mg/kg.
Experiment [16] deals with Mus musculus. Nature of the experiment: Effect on hypothermia in Swiss albino mouse assessed as change in rectal body temperature at 20 mg/kg, ip after 120 mins by inducible hypothermia test. It is filed as functional, organism-based. The arrangement: dose 20 mg/kg.
Experiment [17] deals with Mus musculus. Nature of the experiment: Effect on hypothermia in Swiss albino mouse assessed as change in rectal body temperature at 2.5 mg/kg, ip after 120 mins by inducible hypothermia test. It is filed as functional, organism-based. The arrangement: dose 2.5 mg/kg.
Experiment [18] deals with Mus musculus. Nature of the experiment: Effect on hypothermia in Swiss albino mouse assessed as change in rectal body temperature at 2.5 mg/kg, ip after 60 mins by inducible hypothermia test. It is filed as functional, organism-based. Set-up: dose 2.5 mg/kg.
Experiment [19] deals with Mus musculus. Nature of the experiment: Effect on hypothermia in Swiss albino mouse assessed as change in rectal body temperature at 5 mg/kg, ip dosed 15 mins after 0.1 mg/kg, sc WAY 100635 challenge measured after 60 mins by inducible hypothermia test. It is filed as functional, organism-based.
Experiment [20] has as its system Mus musculus. Nature of the experiment: Effect on hypothermia in Swiss albino mouse assessed as change in rectal body temperature at 2.5 mg/kg, ip after 30 mins by inducible hypothermia test. It is filed as functional, organism-based. Set-up: dose 2.5 mg/kg.
The test system of experiment [21] is Mus musculus. Nature of the experiment: Effect on hypothermia in Swiss albino mouse assessed as change in rectal body temperature at 2.5 mg/kg, ip after 90 mins by inducible hypothermia test. It is filed as functional, organism-based. Set-up: dose 2.5 mg/kg.
Experiment [22] has as its system Mus musculus. Nature of the experiment: Effect on hypothermia in Swiss albino mouse assessed as change in rectal body temperature at 5 mg/kg, ip dosed 15 mins after 0.1 mg/kg, sc WAY 100635 challenge measured after 30 mins by inducible hypothermia test. It is filed as functional, organism-based.
Experiment [23] is filed under the species Mus musculus. The conditions noted are these: Swiss albino, 10 mg/kg.
Description: Effect on hypothermia in Swiss albino mouse assessed as change in rectal body temperature at 10 mg/kg, ip dosed 15 mins after 0.1 mg/kg, sc WAY 100635 challenge measured after 60 mins by inducible hypothermia test
The species named for experiment [24] is Mus musculus. The following applies: Swiss albino, 10 mg/kg. The source holds these as a separate data set.
Description: Effect on hypothermia in Swiss albino mouse assessed as change in rectal body temperature at 10 mg/kg, ip dosed 15 mins after 0.1 mg/kg, sc WAY 100635 challenge measured after 30 mins by inducible hypothermia test
Experiment [25] concerns Mus musculus. Nature of the experiment: Antidepressant activity in Swiss albino mouse assessed as total immobility time at 20 mg/kg, ip administered 30 mins before test measured 6 mins test session after 2 mins habituation period by forced swimming test. It is filed as functional, organism-based. Set-up: dose 20 mg/kg.
The test system of experiment [26] is Mus musculus. Nature of the experiment: Antidepressant activity in Swiss albino mouse assessed as total immobility time at 10 mg/kg, ip administered 30 mins before test measured 6 mins test session after 2 mins habituation period by forced swimming test. It is filed as functional, organism-based. The arrangement: dose 10 mg/kg.

The source made the active and inactive calls. The calls are words filed in the database; no cut-off is given here.

Sodium-dependent serotonin transporter, sequence (P31652 whole entry): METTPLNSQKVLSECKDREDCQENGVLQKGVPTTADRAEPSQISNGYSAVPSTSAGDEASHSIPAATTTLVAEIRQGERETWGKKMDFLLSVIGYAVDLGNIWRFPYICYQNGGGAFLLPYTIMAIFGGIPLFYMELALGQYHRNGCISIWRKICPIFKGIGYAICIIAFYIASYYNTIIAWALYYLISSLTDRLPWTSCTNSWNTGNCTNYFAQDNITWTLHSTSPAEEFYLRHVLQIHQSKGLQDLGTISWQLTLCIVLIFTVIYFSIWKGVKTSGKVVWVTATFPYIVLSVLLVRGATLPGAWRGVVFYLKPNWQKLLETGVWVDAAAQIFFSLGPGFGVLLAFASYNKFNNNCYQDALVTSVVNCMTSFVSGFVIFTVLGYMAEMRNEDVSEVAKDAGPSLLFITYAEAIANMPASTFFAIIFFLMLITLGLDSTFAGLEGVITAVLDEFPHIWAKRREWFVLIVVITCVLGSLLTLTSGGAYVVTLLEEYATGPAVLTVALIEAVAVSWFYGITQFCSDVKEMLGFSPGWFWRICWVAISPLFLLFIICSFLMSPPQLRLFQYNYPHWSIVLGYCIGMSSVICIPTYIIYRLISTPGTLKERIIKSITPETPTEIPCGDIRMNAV

Turning to `COc1ccccc1-c1c2n(c(=O)n(CCCCN3CCC(c4c[nH]c5ccccc45)CC3)c1=O)CCCC2`, the deltaT with Mus musculus [1] was -0.5 °C; with Mus musculus [2] it was -0.3 °C; in the experiment with Mus musculus [3], -0.2 °C; in the experiment on Mus musculus [4], -0.7 °C; with Mus musculus [5], -0.5 °C; in the experiment on Mus musculus [6], -0.3 °C. The deltaT in the experiment on Mus musculus [7] is -0.8 °C; in the experiment with Mus musculus [9] it was -0.3 °C; in the experiment with Mus musculus [10], -0.2 °C; in the experiment on Mus musculus [11], -0.1 °C; in the experiment with Mus musculus [12] it was -0.9 °C; in the experiment with Mus musculus [14], -0.2 °C. In addition, the deltaT in the experiment on Mus musculus [15] is -0.5 °C; with Mus musculus [16] it was 0 °C. Further, the figures for the Ki in experiment [8] and in [13] were 19.9 nM and 134 nM, respectively.
As to `O=c1c(-c2ccccc2F)c2n(c(=O)n1CCCCN1CCC(c3c[nH]c4ccccc34)CC1)CCCC2`, the deltaT was -0.1 °C in the experiment with Mus musculus [17]; -1.3 °C in the experiment with Mus musculus [7]; -0.2 °C in the experiment with Mus musculus [18]; -0.5 °C in the experiment on Mus musculus [9]; -0.1 °C in the experiment on Mus musculus [19]; -0.5 °C with Mus musculus [20]. Besides, the deltaT was -0.1 °C in the experiment on Mus musculus [21], -0.2 °C in the experiment with Mus musculus [22], -0.3 °C with Mus musculus [14] and -0.8 °C in the experiment on Mus musculus [15]. Also, the inhibitory constant (Ki) in [8] came out at 41.3 nM; in [13], 68.4 nM.
Take `Cc1[nH]c2ccccc2c1C1CCN(CCCCn2c(=O)c(-c3ccccc3Cl)c3n(c2=O)CCCC3)CC1`: the Ki is 393 nM in [8] and 1300 nM in experiment [13].
Regarding `O=c1c(-c2ccccc2)c2n(c(=O)n1CCCCN1CCC(c3c[nH]c4ccccc34)CC1)CCCC2`, the deltaT in the experiment with Mus musculus [1] is -0.3 °C; in the experiment filed under Mus musculus [23], -0.2 °C; in the experiment with Mus musculus [3] it was -0.1 °C; in the experiment on Mus musculus [6] it was -0.2 °C; in the experiment on Mus musculus [7] it was -0.7 °C; in the experiment on Mus musculus [9], -0.2 °C. Moreover, the deltaT in the experiment with Mus musculus [12] was -1.1 °C; in the experiment listed under Mus musculus [24] it was -0.5 °C; in the experiment on Mus musculus [14], -0.1 °C; with Mus musculus [15], -0.3 °C. Moreover, the values for the Ki in [8] and in [13] were 28.3 nM and 81.7 nM, respectively.
Consider `Cc1[nH]c2ccccc2c1C1CCN(CCCCn2c(=O)c(-c3ccc(F)cc3)c3n(c2=O)CCCC3)CC1`, for which the inhibitory constant (Ki) in experiment [8] came out at 114 nM; in experiment [13], 147 nM.
Regarding `O=c1c(-c2ccccc2Cl)c2n(c(=O)n1CCCCN1CCC(c3c[nH]c4ccccc34)CC1)CCCC2`, the deltaT in the experiment on Mus musculus [1] is -0.2 °C; in the experiment with Mus musculus [3] it was 0 °C; in the experiment with Mus musculus [4], -1 °C; in the experiment on Mus musculus [5], -0.6 °C; in the experiment with Mus musculus [6], -0.1 °C; with Mus musculus [7], -0.5 °C. Moreover, the deltaT in the experiment on Mus musculus [9] was -0.2 °C; in the experiment on Mus musculus [10] it was -0.2 °C; in the experiment with Mus musculus [12], -0.7 °C; in the experiment with Mus musculus [14], -0.1 °C; in the experiment on Mus musculus [15], -0.2 °C; in the experiment on Mus musculus [16], -0.1 °C. Moreover, the Ki in experiment [8] was 62.3 nM; in experiment [13], 147 nM.
Turning to `Cc1ccc(-c2c3n(c(=O)n(CCCCN4CCC(c5c[nH]c6ccccc56)CC4)c2=O)CCCC3)cc1`, the deltaT with Mus musculus [1] is -0.3 °C; in the experiment on Mus musculus [2], -0.4 °C; with Mus musculus [3], -0.1 °C; in the experiment with Mus musculus [4], -1.3 °C; in the experiment with Mus musculus [5], -0.9 °C; in the experiment with Mus musculus [6], -0.2 °C. Moreover, the deltaT with Mus musculus [7] is -0.5 °C; with Mus musculus [9] it was -0.3 °C; in the experiment with Mus musculus [10], -0.4 °C; in the experiment on Mus musculus [11], -0.2 °C; with Mus musculus [12] it was -0.6 °C; in the experiment on Mus musculus [14], -0.2 °C. Besides, the deltaT is -0.4 °C in the experiment with Mus musculus [15] and -0.3 °C in the experiment with Mus musculus [16]. For the same molecule, the result with Mus musculus [25] and in the experiment on Mus musculus [26] was inactive. For the same molecule, the Ki in experiment [8] was determined as 46.2 nM; in experiment [13], 42.4 nM.
Regarding `Cc1[nH]c2ccccc2c1C1CCN(CCCCn2c(=O)c(-c3ccccc3F)c3n(c2=O)CCCC3)CC1`, the values for the Ki in [8] and in [13] were 303 nM and 1300 nM, respectively.

Usually Ki stands for a measure of affinity in units of concentration, obtained from inhibition or displacement. Low values mean a stronger hold on the target, high ones a looser hold on the target.

The values are drawn from ChEMBL document CHEMBL1649369, “Novel 4-aryl-pyrido[1,2-c]pyrimidines with dual SSRI and 5-HT(1A) activity. part 3” (Eur J Med Chem, 2011).
